Columns and labels:
Assay type in all cases: cell-based
[1] = test system: NRTI-resistant HIV-1 strain 7396; test: microbe, parasite or virus in culture; details: Human immunodeficiency virus 1, TZM-bl
Description: (§1) Fig 7 (A–C) TZM-bl cells (1 × 10^4 cells/well) cultured in a 96-well plate were treated with fivefold serial dilutions of the indicated compound or ARV for 1 h before infection with the HIV-1NL4-3 or ARV-resistant HIV-1 strains at an MOI of 1, respectively. At 48 h after infection, the EC50 values were determined using an F-Luc activity. The symbols represent the fold-change values of EC50 against each mutant virus relative to the wild-type (WT) virus. (D) PBMCs (5 × 10^4 cells/well) were infected with the HIV-1NL4-3 and PIs-resistant HIV-1 strain at an MOI of 0.1, respectively. Subsequently, the PBMCs were treated with 10-fold serial dilutions of the indicated compounds or PI. At 3 days after infection, the EC50 values on the viral replication were determined using a p24 […] assay kit. (E) The inhibitory kinetics for the WT and ARV-resistant viruses. TZM-bl cells infected with WT or ARV-resistant viruses were cultured upon fivefold serial dilutions of each compound for 2 days and the infectivity was determined using an F-Luc activity.
(§2) The Tzm-bl-derived dual Tat reporter; TZM-bl/Tat/Rluc (bl-DTR) cells were established from TZM-bl cells using two Dox-inducible lentiviral expression cassettes cloned with Flag-tagged Tat86 and the R-Luc gene, as described in our previous study ([11]). TZM-bl, A3.01, J1.1, and J-Lat 6.3 cells as well as the HIV-1 molecular clone pNL4-3, pNL(AD8), ARV-resistant HIV-1 strains, and HIV-1NL43-IRES-eGFP (pBR43IeG-nef^+, gifted by Dr. Frank Kirchhoff) ([52]) were provided by the National Institute of Health HIV Reagent Program (NIH, Bethesda, MD, USA). HeLa (CCL-2) and 293T (CRL-3216) cell lines were purchased from the American Type Culture Collection (ATCC, Manassas, VA, USA). The bl-DTR, TZM-bl, HeLa, and 293T cells were cultured in Dulbecco’s modified Eagle’s medium supplemented with 1% penicillin–streptomycin and 10% (vol/vol) heat-inactivated fetal bovine serum (all from Gibco-BRL, Gaithersburg, MD, USA), and 1 µg/mL of puromycin and 200 µg/mL of zeocin were additionally supplemented for the bl-DTR cells. PBMCs were purchased from AllCells (Alameda, CA, USA) and cultured as previously described ([12]). The information on ARV-resistant HIV-1 strains was described in previous reports as follows: NNRTI-resistant 12241 and 12243 ([53]); NRTI-resistant 7396, 7406, and 7407 ([54]); INSTI-resistant 11847 and 11849 ([55], [56]); and PI-resistant 11800 and 11803 ([57]). Each molecular HIV-1 clone was transfected to 293T cells, as previously described ([58]), to obtain infectious HIV-1 particles. Virus-containing cell culture supernatants were collected 3 days after transfection, and filtered through a 0.45-µm membrane filter (Millipore Sigma, Burlington, MA, USA) to remove cell debris. The viral titration was performed as described previously ([59]) with some minor modifications. In brief, 1 × 10^4 TZM-bl cells seeded in 96-well plates were infected with 200 µL of virus-containing medium diluted serially twofold. The incubation was for 2 days and the experiment was performed in triplicate; the infection time minimized the virus spread ([59]). The titration of the infectious viral particles was performed with a ß-Gal staining assay using the ßeta-Galactosidase Staining Kit (Mirus Bio, Madison, WI, USA) following the manufacturer’s protocols. In brief, the infected cells were washed with phosphate-buffered saline (PBS) and fixed using a Cell Fixative Working solution. The cells were washed with PBS and stained using the Cell Staining Working Solution containing X-gal. The infected blue-colored cells were counted under a microscope (100× magnification). The infectious virus titer was determined as a mean value of blue-colored cells count × dilution factor and used for determining the multiplicity of infection (MOI) in each infection experiment.

[2] = test system: NRTI-resistant HIV-1 strain 7406; test: microbe, parasite or virus in culture; details: Human immunodeficiency virus 1, TZM-bl
Description: as §1, §2

[3] = test system: NRTI-resistant HIV-1 strain 7407; test: microbe, parasite or virus in culture; details: Human immunodeficiency virus 1, TZM-bl
Description: as §1, §2

HIV-1NL4-3 [4] = test: HIV-1 infectivity in TZM-bl cells (F-Luc); details: Human immunodeficiency virus 1, TZM-bl, 48 h, Table S1, WT virus, TZM-bl, fivefold serial dilutions, MOI 1, 48 h
Description: (§6) The TZM-bl cells (also referred to as JC53BL-13) expressing human CD4, CXCR4, and CCR5 carrying the F-Luc and lacZ genes downstream of the HIV-1 LTR promoter ([60]) were used to determine the inhibitory effect of the compounds on HIV-1 infection, as previously described ([11], [12], [61]). In brief, 1 × 10^4 cells were cultured in 96-well plates for 24 h and subsequently treated with compounds at the indicated concentrations. Without replacement of the culture medium, the cells were subsequently infected with the HIV-1NL4-3 wild-type or ARV-resistant HIV-1 strains at an MOI of 1 to determine the exact inhibitory effect of compounds on a single-round infection. After 48 h, the inhibitory effect of the compounds was determined using a Bright Glo luciferase assay kit (Promega) or β-Galactosidase Enzyme Assay kit (Promega). The infectivity data were presented as a percentage relative to the dimethyl sulfoxide (DMSO) control (vehicle). Cell viability was determined using the resazurin-based PrestoBlue Cell Viability Reagent (Thermo Fisher Scientific, Waltham, MA, USA) following the manufacturer’s instructions.

[5] = test system: HIV-1NL4-3 IRES-eGFP-nef+; test: eGFP-encoding HIV-1 infection of TZM-bl cells; details: 9, 10, 13 1.5 μM, 20, 21, 22 4 μM, seliciclib 10 µM, triptolide 5 nM, DTG 2 nM, EFV 2 nM, 2 days
Description: Fig 4 (A) Comparison of the chemical structures between prominent derivatives (9, 10, and 13) and non-functional derivatives (20, 21 and 22). (B) bl-DTR cells were treated with serial dilutions of each compound upon Dox for 24 h. The activities of F-Luc and R-Luc were determined using the Dual-Glo -Luciferase assay system. (C) TZM-bl cells were infected with the HIV-1NL4-3 strain at an MOI of 1 upon treatment of compounds. At 48 h after infection, the viral infectivity and cell viability were determined as described above (Fig. 1). (D) TZM-bl cells were infected with HIV-1NL4-3 IRES-eGFP virus along with the compound treatment. Two days later, GFP-expressing cells were observed by fluorescence microscopy (100× magnification). […] At 48 h after infection, the β-gal activity indicating viral infectivity was determined using the β-gal Enzyme Assay kit. F-Luc activity and cell viability were determined as described above (Fig. 4C). (C and E) The dose-response curves show the relative activity compared with that of the DMSO vehicle (mean ± SD; n = 3).

[6] = Cell viability of TZM-bl cells (PrestoBlue); details: human; TZM-bl cells, absence of HIV-1 infection; mean ± SD; read-out: CC50
Description: as §6

[7] = Cell viability of A3.01 cells; details: human; A3.01 cells, absence of HIV-1 infection; mean ± SD; read-out: CC50
Description: (§3) The p24 level from the cell supernatant was subsequently determined using a p24 […] kit (PerkinElmer). In parallel, the cell viability was determined without viral infection because of the viral cytopathic effect. […] In parallel, cell viability was determined. The data (A and B) are presented as the mean ± SD (n = 3). (C) PBMCs (4 × 10^5) infected with HIV-AD8 at an MOI of 0.1 were treated with 1.5 µM of the compounds or ARVs for 3 days. The levels of p24 and cell viability were subsequently determined. (D) J1.1 cells were cultured with the compounds ([…]) under 50 ng/mL phorbol myristate acetate (PMA) treatment for 2 days. The level of p24 was subsequently determined. (E) J-Lat 6.3 cells were treated with the compounds (1.5 µM) under 1 µg/mL of PMA for 2 days. The GFP-positive cell population was analyzed using flow cytometry. The data are represented as a value relative to the DMSO-treated vehicle (D) and a percent of the GFP^+ cell population (E) as mean ± SD (n = 3).
(§4) The inhibitory effects of the compounds on viral replication were determined with some minor modifications, as previously described ([12], [62]). […] PBMCs (4 × 10^5) pre-activated with PHA-M for 3 days were washed with fresh media to remove excess PHA-M and subsequently infected with HIV-1NL4-3 or HIV-1AD8 or PIs-resistant HIV-1 strains as A3.01 infection. After infection, the infectious media were replaced with fresh media supplemented with international 10 units (IU)/mL of IL-2 and the indicated compounds. At 72 h after infection, the inhibitory effect of the compounds on viral replication was determined by measuring the p24 amount, an HIV capsid protein, using an HIV-1 p24 […] kit (PerkinElmer, Waltham, MA, USA). Cell viability was determined as described above. The inhibitory effects on provirus reversing in J1.1 and J-Lat 6.3 cells were determined as previously described ([12], [41], [63]) with some minor modifications. Briefly, 5 × 10^4 persistently HIV-1-infected J1.1 or J-Lat 6.3 cells were cultured in either the presence or absence of the compounds at a final concentration of 1.5 µM and treated with PMA (50 ng/mL for J1.1 cells, 1 µg/mL for J-Lat 6.3 cells). Two days after treatment, the levels of viral production were determined using p24 […] for J1.1 cells and flow cytometry analysis for GFP-expressing J-Lat 6.3 cells.

Cell viability of PBMCs = details: human; PBMCs, absence of HIV-1 infection; mean ± SD; read-out: CC50
Description: as §3, §4

HIV-1NL4-3 [8] = test: Time-of-addition assay in TZM-bl cells; details: HIV-1NL4-3 MOI 1, 9 and 13 1.5 μM, T-20 1 µM, triptolide 5 nM, ARVs 1 µM, F-Luc at 54 h
Description: Fig 5 (A) Time-of-addition assay. […] Subsequently, the cells were treated with the compounds at the indicated time points (0, 1, 2, 4, 6, 8, 10, 12, 24, 30, 36, 42, and 48 h) after HIV-1 infection. The final concentrations of compounds are described in Materials and Methods. Viral activity according to the timing of drug addition was measured as F-Luc activity at 54 h after infection. The relative activities are represented as the mean ± SD (n = 3) compared with the activity observed 54 h post-infection. The relative time frames associated with each HIV-1 infection step are defined based on the time frame of susceptibility to the drug that blocks that particular infection step. […] At 16 h after infection, the viral reverse transcription (RT) product (viral cDNA) level was determined by quantitative real-time PCR (RT-qPCR) using gag and 18S rRNA primer sets and represented as the mean ± SD (n = 3) normalized against the amount of the 18S rRNA compared with the DMSO control. **P < 0.01 compared with the vehicle (DMSO). (C) An in vitro integrase (IN) assay was performed with 10 µM of the indicated compounds following the manufacturer’s protocol. **P < 0.01 compared with vehicle (DMSO). (D) A3.01 cells were infected with HIV-1 upon treatment with the indicated compounds (5 µM) and ARVs (EFV and DTG) as the experimental controls. At 40 h after infection, cellular chromosomal DNA was purified, and the integrated proviral DNA was detected through nested Alu-PCR amplification.
A time-of-addition assay was performed as previously described ([25]) with minor modifications. […] Reference drug and test compounds were subsequently added at the indicated time (0, 1, 2, 4, 6, 8, 10, 12, 24, 30, 36, 42, and 48 h after infection). Final concentrations were as follows: compounds 9 and 13 (1.5 μM), T-20 (1 µM), Triptolide (5 nM), and ARVs (AZT, EFV, DTG, RAL) (1 µM). The viral activity according to the timing of drug addition was measured using a Bright Glo luciferase assay kit (Promega). Virus activity curves present a % activity relative to the activity observed at 54 h after infection, and the data are presented as the mean ± standard deviation (SD) (n = 3). The relative time frame associated with each HIV-1 infection step was defined based on the sensitivity to each drug that blocks a particular infection step.

[9] = test system: PI-resistant HIV-1 strain 11803; test: microbe, parasite or virus in culture; details: PI-resistant 11803, PBMCs, 10-fold serial dilution; read-out: EC50
From the text: as §2
(§5) The inhibitory effects of the compounds on viral replication were determined with some minor modifications, as previously described ([12], [62]). […] PBMCs (4 × 10^5) pre-activated with PHA-M for 3 days were washed with fresh media to remove excess PHA-M and subsequently infected with HIV-1NL4-3 or HIV-1AD8 or PIs-resistant HIV-1 strains as A3.01 infection. After infection, the infectious media were replaced with fresh media supplemented with international 10 units (IU)/mL of IL-2 and the indicated compounds. At 72 h after infection, the inhibitory effect of the compounds on viral replication was determined by measuring the p24 amount, an HIV capsid protein, using an HIV-1 p24 […] kit (PerkinElmer, Waltham, MA, USA). Cell viability was determined as described above. The inhibitory effects on provirus reversing in J1.1 and J-Lat 6.3 cells were determined as previously described ([12], [41], [63]) with some minor modifications.

[10] = test system: PI-resistant HIV-1 strain 11800; test: microbe, parasite or virus in culture; details: PI-resistant 11800, PBMCs, 10-fold serial dilution; read-out: EC50
From the text: as §2, §5

HIV-1NL4-3 [11] = test: HIV-1 replication in PBMCs (p24 […]); details: Table S1, WT virus, 10-fold serial dilution, read-out: EC50
Description: as §3, §4

## Nc1ccn([C@@H]2CS[C@H](CO)O2)c(=O)n1 [Compound 3TC, lamivudine]
[1]
  EC50: 3.64 ± 1.37 µM
[2]
  EC50: > 100 µM
[3]
  EC50: > 100 µM
HIV-1NL4-3 [4]
  EC50: 1.23 ± 0.22 µM

## CC[C@H](CO)Nc1nc(NCc2ccccc2)c2ncn(C(C)C)c2n1 [seliciclib, reference compound]
[5]
  inhibition of viral-expressed eGFP signal: remarkably inhibited
[6]
  CC50 at 48 h: 39.2 ± 4.09 µM
[7]
  CC50 at 3 days: 27 ± 1.12 µM
Cell viability of PBMCs
  CC50 at 3 days: 21.4 ± 2.1 µM

## Cc1cn([C@H]2C[C@H](N=[N+]=[N-])[C@@H](CO)O2)c(=O)[nH]c1=O [AZT, zidovudine]
HIV-1NL4-3 [8]
  time of administration after infection at which effectiveness began to decrease / was lost: 6 h
[1]
  EC50: 16.4 ± 1.37 µM
[2]
  EC50: 73.12 ± 0.43 µM
[3]
  EC50: > 100 µM
HIV-1NL4-3 [4]; read-out: EC50
  EC50: 0.11 ± 0.01 µM

## Cc1c(O)cccc1C(=O)N[C@@H](CSc1ccccc1)[C@H](O)CN1C[C@H]2CCCC[C@H]2C[C@H]1C(=O)NC(C)(C)C [NFV, nelfiravir]
[9]
  EC50: 1.64 ± 0.22 µM
[10]
  EC50: 0.42 ± 0.02 µM
HIV-1NL4-3 [11]
  EC50: < 0.001 µM

## Nc1nc(NC2CC2)c2ncn([C@H]3C=C[C@@H](CO)C3)c2n1 [ABC, abacavir]
[1]
  EC50: 22.4 ± 0.39 µM
[2]
  EC50: > 100 µM
[3]
  EC50: > 100 µM
HIV-1NL4-3 [4]; read-out: EC50
  EC50: 12.2 ± 7.48 µM

## enfuvirtide [Compound T-20]
HIV-1NL4-3 [8]
  time of administration after infection at which effectiveness began to decrease / was lost: 1 h
